Assay results taken from PMC5826148, “Whole-Cell Screen of Fragment Library Identifies Gut Microbiota Metabolite Indole Propionic Acid as Antitubercular” (Antimicrobial Agents and Chemotherapy, 2018).
Values after ≈ are worked out from the molar mass of the structure shown. Like-named read-outs stand apart in the source and are kept apart here.

How the values were obtained:
M. tuberculosis H37Rv [1] = test: M. tuberculosis growth inhibition dose-response (MIC50), turbidity readout; type: cell-based, Mycobacterium tuberculosis; details: Mycobacterium tuberculosis, 240 h, read-out: Antibacterial activity (MIC50) M. tuberculosis
[2] = Cytotoxicity assay, THP-1 cells (CellTiter 96 AQueous One); details: human
M. tuberculosis H37Rv [3] = test: Bactericidal activity, CFU enumeration on agar after treatment; type: cell-based, Mycobacterium tuberculosis; details: Mycobacterium tuberculosis, H37RV, read-out: Bactericidal activity (log reduction) at 1 mM
M. tuberculosis = test: Growth inhibition in acidic medium (pH 6.2); type: cell-based, Mycobacterium tuberculosis
[4] = Cytotoxicity assay, HepG2 cells (CellTiter 96 AQueous One); details: human, HepG2 cells
[5] = system: human red blood cells (RBCs); test: Red blood cell lysis assay; details: hemolysis
Escherichia coli = test: Spectrum of activity: E. coli growth inhibition; type: cell-based; details: Escherichia coli, read-out: Antibacterial activity (MIC50) E. coli
M. abscessus = test: Spectrum of activity: M. abscessus growth inhibition; type: cell-based; details: Mycobacteroides abscessus, 72 h, read-out: Antibacterial activity (MIC50) M. abscessus
M. bovis BCG Pasteur = test: microbe, parasite or virus in culture; type: cell-based; details: Mycobacterium tuberculosis variant bovis BCG, BCG, read-out: Antibacterial activity (MIC50) M. bovis BCG
Staphylococcus aureus = test: Spectrum of activity: S. aureus growth inhibition; type: cell-based; details: Staphylococcus aureus, read-out: Antibacterial activity (MIC50) S. aureus
M. smegmatis = test: Spectrum of activity: M. smegmatis growth inhibition; type: cell-based; details: Mycolicibacterium smegmatis, 24 h, read-out: Antibacterial activity (MIC50) M. smegmatis
M. avium = test: Spectrum of activity: M. avium growth inhibition; type: cell-based; details: Mycobacterium avium, 96 h, read-out: Antibacterial activity (MIC50) M. avium
[6] = M. tuberculosis, 1 mM, log CFU/ml reduction from initial inoculum
[7] = Mycobacterium tuberculosis, pH 6.2; read-out: Activity (MIC50) in acidic medium (pH 6.2)
[8] = Mycobacterium tuberculosis, pH 6.2, read-out: Activity (MIC50) in acidic medium (pH 6.2)

| Structure (SMILES) | MIC50 (M. tuberculosis H37Rv [1]; H37Rv, 10 days) [µM] | CC50 at 24 h [2] [µM] | log reduction at 1000 µM (M. tuberculosis H37Rv [3]; [6]) | MIC50 (M. tuberculosis; [7]) [µM] | CC50 at 24 h [4] [µM] | RBCs HC50 [5] | MIC50 (Escherichia coli; LB medium, overnight) [µM] | MIC50 (M. abscessus; 3 days) [µM] | MIC50 (M. bovis BCG Pasteur) [µM] | MIC50 (Staphylococcus aureus; LB medium, overnight) [µM] | MIC50 (M. smegmatis; 1 day) [µM] | MIC50 (M. avium; 4 days) [µM] | MIC50 (M. tuberculosis H37Rv [1]; H37RV) [µM] | log reduction at 1000 µM (M. tuberculosis H37Rv [3]) | MIC50 (M. tuberculosis; [8]) [µM] | MIC50 (Escherichia coli) [µM] | MIC50 (M. abscessus) [µM] | MIC50 (Staphylococcus aureus) [µM] | MIC50 (M. smegmatis) [µM] | MIC50 (M. avium) [µM] |
| --- | --- | --- | --- | --- | --- | --- | --- | --- | --- | --- | --- | --- | --- | --- | --- | --- | --- | --- | --- | --- |
| O=c1cc(C(F)(F)F)c2ccc(O)cc2o1 [Fragment F2, 7-Hydroxy-4-(trifluoromethyl)-2H-chromen-2-one] | 213 (≈ 49 µg/mL) | 879 | 1.1 | 179 (≈ 41.2 µg/mL) | 987 | >1,000 μM | 432 (≈ 99.4 µg/mL) | > 500 | 329 (≈ 75.7 µg/mL) | 198 (≈ 45.6 µg/mL) | 476 (≈ 110 µg/mL) | > 500 | – | – | – | – | – | – | – | – |
| Cc1ncc(C(N)=S)[nH]1 [Fragment F3, 2-Methyl-1H-imidazole-4-carbothioamide] | 105 (≈ 14.8 µg/mL) | 850 | 1.87 | 98 (≈ 13.8 µg/mL) | > 1000 | >1,000 μM | > 500 | 304 (≈ 42.9 µg/mL) | 134 (≈ 18.9 µg/mL) | > 500 | > 500 | 198 (≈ 28 µg/mL) | – | – | – | – | – | – | – | – |
| COC(=O)c1cc2ccccc2cn1 [Fragment F4, Methyl isoquinoline-3-carboxylate] | 175 (≈ 32.8 µg/mL) | > 1000 | 1.98 | 158 (≈ 29.6 µg/mL) | > 1000 | >1,000 μM | > 500 | > 500 | 143 (≈ 26.8 µg/mL) | > 500 | 389 (≈ 72.8 µg/mL) | 344 (≈ 64.4 µg/mL) | – | – | – | – | – | – | – | – |
| Nc1ccc2oc3c(c2c1)CCCC3 [Fragment F5, 6,7,8,9-Tetrahydrodibenzo [b,d]furan-2-amine] | 245 (≈ 45.9 µg/mL) | > 1000 | 1.11 | 62 (≈ 11.6 µg/mL) | > 1000 | >1,000 μM | > 500 | > 500 | 488 (≈ 91.4 µg/mL) | > 500 | > 500 | > 500 | – | – | – | – | – | – | – | – |
| c1ccc2c(c1)[nH]c1cnccc12 [Fragment F6, 9H-Pyrido[3,4-b]indole] | – | – | – | – | – | 787 µM | – | – | 205 (≈ 34.5 µg/mL) | – | – | – | 97 (≈ 16.3 µg/mL) | 0.43 | 113 (≈ 19 µg/mL) | 302 (≈ 50.8 µg/mL) | 254 (≈ 42.7 µg/mL) | > 500 | 121 (≈ 20.4 µg/mL) | 302 (≈ 50.8 µg/mL) |
| Cc1oc(-c2ccc(Cl)cc2)cc1C(=O)N(C)C [Fragment F8, 5-(4-Chlorophenyl)-N,N,2-trimethyl-3-furamide] | 135 (≈ 35.6 µg/mL) | 234 | 1.44 | 93 (≈ 24.5 µg/mL) | 589 | 433 µM | > 500 | 322 (≈ 84.9 µg/mL) | 189 (≈ 49.8 µg/mL) | > 500 | 233 (≈ 61.4 µg/mL) | 169 (≈ 44.6 µg/mL) | – | – | – | – | – | – | – | – |
| COC(=O)c1sc2ccccc2c1O [Fragment F9, Methyl 3-hydroxy-1-benzo thiophene-2-carboxylate] | 142 (≈ 29.6 µg/mL) | – | 2.09 | 240 (≈ 50 µg/mL) | – | >1,000 μM | > 500 | > 500 | > 500 | 217 (≈ 45.2 µg/mL) | > 500 | > 500 | – | – | – | – | – | – | – | – |
| O=C(O)c1ccc(-c2ccccc2)s1 [Fragment F10, 5-Phenylthiophene-2-carboxylic acid] | 186 (≈ 38 µg/mL) | 544 | 1.46 | 97 (≈ 19.8 µg/mL) | 612 | >1,000 μM | > 500 | 247 (≈ 50.4 µg/mL) | 397 (≈ 81.1 µg/mL) | > 500 | 345 (≈ 70.5 µg/mL) | > 500 | – | – | – | – | – | – | – | – |
| CSc1cc(-c2ccc(F)cc2)n[nH]1 [Fragment F11, 3-(4-Fluorophenyl)-5-(methylsulfanyl)-1H-pyrazole] | 195 (≈ 40.6 µg/mL) | 765 | 3.06 | 140 (≈ 29.2 µg/mL) | 945 | >1,000 μM | 344 (≈ 71.6 µg/mL) | 271 (≈ 56.4 µg/mL) | 308 (≈ 64.1 µg/mL) | > 500 | 398 (≈ 82.9 µg/mL) | 498 (≈ 104 µg/mL) | – | – | – | – | – | – | – | – |
| Clc1ccc2nc(N3CCCNCC3)sc2c1 [Fragment F12, 6-Chloro-2-(1,4-diazepan-1-yl)-1,3-benzothiazole] | 198 (≈ 53 µg/mL) | 124 | 2.8 | 104 (≈ 27.8 µg/mL) | 187 | >1,000 μM | 324 (≈ 86.8 µg/mL) | 351 (≈ 94 µg/mL) | 137 (≈ 36.7 µg/mL) | > 500 | 221 (≈ 59.2 µg/mL) | 157 (≈ 42 µg/mL) | – | – | – | – | – | – | – | – |
| O=C(O)c1cc2ccccc2cn1 [Fragment F14, Isoquinoline-3-carboxylic acid] | – | – | – | – | – | >1,000 μM | – | – | 193 (≈ 33.4 µg/mL) | – | – | – | 235 (≈ 40.7 µg/mL) | 1.97 | 87 (≈ 15.1 µg/mL) | 193 (≈ 33.4 µg/mL) | > 500 | 304 (≈ 52.6 µg/mL) | 176 (≈ 30.5 µg/mL) | 473 (≈ 81.9 µg/mL) |
| Cc1n[nH]c(C)c1Oc1ccc(Cl)cc1 [Fragment F15, 4-(4-Chlorophenoxy)-3,5-dimethyl-1H-pyrazole] | 235 (≈ 52.3 µg/mL) | 345 | 2.43 | 157 (≈ 35 µg/mL) | 676 | 453 µM | > 500 | 256 (≈ 57 µg/mL) | 156 (≈ 34.7 µg/mL) | 79 (≈ 17.6 µg/mL) | 198 (≈ 44.1 µg/mL) | 174 (≈ 38.7 µg/mL) | – | – | – | – | – | – | – | – |
| Cc1cc(C(=O)O)c(C)n1Cc1cccs1 [Fragment F16, 2,5-Dimethyl-1-(2-thienylmethyl)-1H-pyrrole-3-carboxylic acid] | 247 (≈ 58.1 µg/mL) | 724 | 1.89 | 345 (≈ 81.2 µg/mL) | 766 | >1,000 μM | > 500 | > 500 | > 500 | > 500 | > 500 | > 500 | – | – | – | – | – | – | – | – |
| Cc1ccc2c(c1)N(CCO)C(C)(C)CC2C.O (stereo not shown) [Fragment F18, 2-(2,2,4,7-Tetramethyl-1,2,3,4-tetrahydroquinolin-1-yl)ethan-1-ol hydrate] | – | – | – | – | – | 471 µM | – | – | 87 | – | – | – | 268 | 1.67 | 86 | > 500 | 247 | 189 | 205 | 198 |
